The results in this text go back to patent US20120328525A1, “NANOPARTICLE COMPOSITIONS AND COMPONENTS THEREOF” (priority 2011, published 2012).

In this experiment the test system is axillary sweating. The experiment in a line: Placebo-controlled blinded clinical study, gravimetric sweat measurement (Examples 5-10). In kind it is in vivo, human. Conditions: for percent of subjects with at least a 30% reduction in sweat production vs Baseline / average reduction in sweat production by gravimetric sweat measurement: two weeks after single topical treatment; for average reduction in sweat production by gravimetric sweat measurement: 0.3 mL/axilla; for greater reduction in sweat production than control (placebo) group / greater effectiveness in reducing sweat production than placebo (responder rate): two weeks after treatment; for greater reduction in sweat production than control (placebo) group: placebo 53 mg; for greater effectiveness in reducing sweat production than placebo (responder rate): placebo 29% responders. The text has this: The purpose of the study was to determine if Emulsion H is biologically active in reducing sweating. […] Some subjects received treatment with the potentially biologically active formulation and some subjects received treatment with a placebo, i.e. water. Neither the subject nor the investigator knew which treatment the subject was receiving.
Two weeks after a single treatment, subjects were re-assessed by gravimetric sweat measurement to determine the degree of sweat reduction. A comparison of post-treatment sweat production between the treatment groups was made to determine the degree of sweat reduction by the potentially biologically active formulation.
The sweat production of the subject is measured gravimetrically by the following procedure: • The subject was placed in a room with relatively constant temperature and humidity for at least 30 min. • The subject was placed in a semi-reclining position with the axilla fully exposed and the arm resting comfortably above the head. • The subject's axilla was dried gently with a cotton gauze pad. • The investigator used a forceps to place one filter paper (90 mm diameter) on a balance sensitive to 0.1 mg and recorded its weight. • The investigator used a forceps to place the measured filter paper on the axilla, covered it with plastic and taped the edges of the bag against the subject's skin with hypoallergenic tape to form a seal around the plastic bag. • After 5 minutes, the investigator gently removed the tape and plastic from the subject's axilla and then, using forceps, immediately placed the filter paper onto the scale to record its weight. The scale was then dried and zero balanced. • This measurement was then repeated as described above with the other axilla.
If the subject was eligible for treatment on this basis, the subject was then treated. For treatment, one of the study preparations (0.3 mL/axilla) was applied topically with a gloved finger by the investigator to the subject's skin of the axilla. Emulsion H contained 19.2 mg Labrafac Lipophile WL 1349 and 28.8 mg Polysorbate 80, NF, in addition to 0.9% Sodium Chloride Irrigation, USP, and Gelatin Phosphate Buffer. The average diameter (e.g., particle size) of nanoparticles contained in the Emusion H empty nanoparticle composition was approximately 80.1 nm. The preparation was administered in small increments to avoid run-off. The liquid was rubbed-in until vanished.
The subject was scheduled for a follow-up office visit two weeks after the treatment. At the follow-up office visit, the subject was questioned as to their compliance with the instructions regarding which medications not to use between treatment and the two week follow-up office visit. If the subject was non-compliant, the subject was disqualified from the study. If the subject was compliant, the subject was re-assessed using the gravimetric sweat measurement procedure.
The purpose of the study was to determine if Emulsion V is biologically active in reducing sweating. […] Some subjects received treatment with the potentially biologically active formulation and some subjects received treatment with a placebo, i.e. water. Neither the subject nor the investigator knew which treatment the subject was receiving.
If the subject was eligible for treatment on this basis, the subject was then treated. For treatment, one of the study preparations (0.3 mL/axilla) was applied topically with a gloved finger by the investigator to the subject's skin of the axilla. Emulsion V contained Emulsifying Wax, Gelatin Phosphate Buffer Solution, Isopropyl Myristate, Labrafac Lipophile, Methylparaben, Mineral Oil Heavy Viscosity Range, Polysorbate 80, Propylparaben, Purified Water, Sodium Chloride Injection, and White Petrolatum. All ingredients are either NF or USP grade. The average diameter (e.g., particle size) of nanoparticles contained in the Emusion V empty nanoparticle composition was approximately 77.1 nm. The preparation was administered in small increments to avoid run-off. […]

On to `CCCOC(=O)c1ccc(O)cc1` [Propylparaben], for which the “percent of subjects with at least a 30% reduction in sweat production vs Baseline” value was 70%, the “average reduction in sweat production by gravimetric sweat measurement” value (from here on “average reduction in sweat production”) is given as 177 mg, the “greater reduction in sweat production than control (placebo) group” value (“greater reduction” below) came to 337% and the “greater effectiveness in reducing sweat production than placebo (responder rate)” value amounted to 245%.

Turning to Polysorbate 80, the “percent of subjects with at least a 30% reduction in sweat production vs Baseline” value was determined as 80%, the “average reduction in sweat production” value is recorded as 159 mg, the “greater reduction” value came to 300% and the “greater effectiveness in reducing sweat production than placebo (responder rate)” value is 280%.

On to `CCCCCCCCCCCCCC(=O)OC(C)C` [Isopropyl Myristate], for which the “percent of subjects with at least a 30% reduction in sweat production vs Baseline” value is reported as 55%, the “average reduction in sweat production” value stood at 103 mg, the “greater reduction” value stood at 195% and the “greater effectiveness in reducing sweat production than placebo (responder rate)” value was found to be 191%.
